Results reported in US20100015727A1, “METHOD FOR DETERMINING TRANSPORT ACTIVITY OF A TRANSPORT PROTEIN” (BOEHRINGER INGELHEIM INTERNATIONAL GMBH, priority 2006, published 2010).

Target: T1, MRP4 (Homo sapiens, UniProt O15439)
T1 construct: infected with a baculovirus construct containing the full-length cDNA encoding MRP4; made in house; host or cells: Hi5 or Sf9 insect cells (baculovirus)
T1 sequence (O15439 1-1325): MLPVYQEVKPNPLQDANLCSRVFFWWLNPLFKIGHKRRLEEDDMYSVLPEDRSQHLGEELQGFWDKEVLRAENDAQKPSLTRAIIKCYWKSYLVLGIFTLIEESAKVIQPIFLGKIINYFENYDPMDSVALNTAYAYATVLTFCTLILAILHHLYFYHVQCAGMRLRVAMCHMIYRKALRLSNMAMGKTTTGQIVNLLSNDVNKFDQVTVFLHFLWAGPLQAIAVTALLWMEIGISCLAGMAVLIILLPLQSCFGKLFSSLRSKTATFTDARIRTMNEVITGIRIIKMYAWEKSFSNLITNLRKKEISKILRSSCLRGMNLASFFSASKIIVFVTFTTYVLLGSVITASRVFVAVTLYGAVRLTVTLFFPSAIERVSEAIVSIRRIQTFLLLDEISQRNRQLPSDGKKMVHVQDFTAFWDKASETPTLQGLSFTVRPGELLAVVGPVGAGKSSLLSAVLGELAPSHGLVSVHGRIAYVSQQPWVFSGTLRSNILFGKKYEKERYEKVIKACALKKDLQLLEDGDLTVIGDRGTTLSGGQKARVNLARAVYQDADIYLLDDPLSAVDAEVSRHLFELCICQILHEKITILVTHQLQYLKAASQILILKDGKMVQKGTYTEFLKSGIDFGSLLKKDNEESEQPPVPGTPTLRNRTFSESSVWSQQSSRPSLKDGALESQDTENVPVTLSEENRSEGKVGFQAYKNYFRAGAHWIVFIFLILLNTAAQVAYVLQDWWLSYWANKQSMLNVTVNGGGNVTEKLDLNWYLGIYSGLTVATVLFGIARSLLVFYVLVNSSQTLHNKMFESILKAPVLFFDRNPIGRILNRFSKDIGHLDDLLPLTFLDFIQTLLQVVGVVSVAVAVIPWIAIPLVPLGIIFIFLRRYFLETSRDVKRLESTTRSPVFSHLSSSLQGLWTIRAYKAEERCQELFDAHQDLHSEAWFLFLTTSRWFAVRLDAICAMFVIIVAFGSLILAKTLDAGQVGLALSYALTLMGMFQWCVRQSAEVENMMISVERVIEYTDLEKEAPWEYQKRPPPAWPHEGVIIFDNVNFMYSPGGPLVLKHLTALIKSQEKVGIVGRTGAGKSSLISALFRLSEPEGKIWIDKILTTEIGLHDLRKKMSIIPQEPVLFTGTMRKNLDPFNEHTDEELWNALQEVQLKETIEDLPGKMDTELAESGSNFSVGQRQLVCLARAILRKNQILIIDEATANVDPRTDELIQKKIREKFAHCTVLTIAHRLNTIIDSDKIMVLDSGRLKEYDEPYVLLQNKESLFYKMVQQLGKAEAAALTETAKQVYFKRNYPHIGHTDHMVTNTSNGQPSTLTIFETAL
Assay: SPA assay of MRP4 transport activity (3H-folic acid uptake into membrane vesicles)
Type: biochemical
Details: inhibition of MRP4 transport of 3H-folic acid into membrane vesicles from baculovirus-infected insect cells; Protein A SPA beads, anti-MRP4 rabbit antiserum
Procedure: • 1) Membrane vesicles from insect cells (Hi5 or Sf9) infected with a baculovirus construct containing the full-length cDNA encoding MRP4 are prepared as described by van Aubel et al. (van Aubel et al., 2002) with some modifications: Hi5 cells are cultured in suspension to a cell density of 1×10^6 cells/ml in Insect-Xpress serum free insect cell medium and infected with baculovirus construct containing the full-length cDNA encoding MRP4. Three days after infection, cells are collected by centrifugation at 3000 rpm for 10 min. […] Protein concentration of the membrane preparation is determined using standard methods, e.g. the BCA protein assay (Pierce, product number 23250). • 2) Determination of transport activity of MRP4: Membrane vesicles prepared in 1) are diluted in Tris/sucrose buffer to a concentration of 3.3 μg protein/μl. […] Luminescence signals are measured with the LEADSeeker or TopCount system after 30 min, 1 h, 2 h, 4 h, or up to 24 h. • 3) Calculation of inhibitory effect of a test compound: The relative transport activities of MRP4 determined in the presence of a test compound is calculated as percentage of luminescence determined in the presence of the test compound compared to luminescence determined in the absence of the test compound.

## OCCN(CCO)c1nc(N2CCCCC2)c2nc(N(CCO)CCO)nc(N3CCCCC3)c2n1 [Dipyridamole]
  IC50: 35 µM
